In patent US20060211651A1, “Persulfated oligosaccharide acting on selectins and chemokine” (Taisho Pharmaceutical Co., Ltd., priority 2002, published 2006):

Tests used:
[1] = molecular target: T1, monomeric P-selectin (Homo sapiens, UniProt P16109); test: BIAcore surface plasmon resonance, immobilized glycosaminoglycan vs monomeric P-selectin; type: binding; details: for Kd / koff / kon: P-selectin, GAG immobilized, 25° C.; for interaction with immobilized glycosaminoglycan (sensorgram): monomeric P-selectin
T1 construct: purchased Genzyme-Techne
T1 sequence (P16109 42-771 limits assumed): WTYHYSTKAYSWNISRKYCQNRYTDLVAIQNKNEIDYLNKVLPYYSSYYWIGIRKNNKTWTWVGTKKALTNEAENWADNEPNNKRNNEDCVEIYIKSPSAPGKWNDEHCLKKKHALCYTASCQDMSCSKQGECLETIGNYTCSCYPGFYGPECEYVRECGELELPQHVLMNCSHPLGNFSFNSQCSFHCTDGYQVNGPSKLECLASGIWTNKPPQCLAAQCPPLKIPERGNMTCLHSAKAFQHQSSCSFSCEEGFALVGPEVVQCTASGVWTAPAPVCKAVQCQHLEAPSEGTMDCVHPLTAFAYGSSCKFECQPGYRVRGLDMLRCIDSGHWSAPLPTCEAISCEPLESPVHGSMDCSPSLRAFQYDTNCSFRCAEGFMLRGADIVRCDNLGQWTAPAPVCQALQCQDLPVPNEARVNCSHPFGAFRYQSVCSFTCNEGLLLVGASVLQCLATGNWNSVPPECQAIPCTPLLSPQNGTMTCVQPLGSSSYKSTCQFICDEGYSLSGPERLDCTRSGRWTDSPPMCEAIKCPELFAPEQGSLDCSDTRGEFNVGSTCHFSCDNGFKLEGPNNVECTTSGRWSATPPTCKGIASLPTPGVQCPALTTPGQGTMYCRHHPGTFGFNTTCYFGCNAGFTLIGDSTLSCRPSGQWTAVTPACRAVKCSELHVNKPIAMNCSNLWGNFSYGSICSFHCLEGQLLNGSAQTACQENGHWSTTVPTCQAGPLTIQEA
Procedure: (§1) Affinity kinetics of the interaction between various CS/DS chains and each of L-selectin, P-selectin, CD44 and chemokine were examined by surface plasmon resonance using BIAcore™ biosensor [manufactured by BIAcore AB].
(§2) All experiments were performed at 25° C. At stages of washing and dissociation, buffer C (20 mM HEPES-NaOH, 0.15M NaCl, 1 mM CaCl2, 1 mM MgCl2, pH6.8) was used as a running buffer.
(§3) First, about 1.8 to 2.0 kiloresonance unit (1 kiloresonance unit=1 ng/mm^2) of streptavidin were covalently immobilized onto B1 sensor chip via a primary amine group using an amine coupling kit [manufactured by Amercham-Bioscience] according to the instruction provided by the manufacturer. The remaining activated groups were blocked with 150 μl of 1M ethanolamine-HCl (pH8.5). Then, each glycosaminoglycan which had been biotinylated at a reducing end was injected to a sensor tip surface by using EZ-link™ biotin-LC-hydrazide [manufactured by Pierce] so as to obtain about 150 resonance unit of an immobilization level, according to the method of Sadir et al. [J. Biol. Chem., 276, 8288-8296 (2001); all teachings of which are hereby incorporated by reference].
(§4) Binding assay was performed by injecting continuously each of various concentrations of secondary lymphoid tissue chemokine, γ-interferon inducible protein-10, stromal cell-derived factor-1β, monomeric L-selectin [manufactured by Genzyme-Techne], monomeric P-selectin [manufactured by Genzyme-Techne] and monomeric CD44, to a glycosaminoglycan-coupled sensor tip at a flow rate of 30 μl/min for 0 to 90 seconds, and then injecting a running buffer thereto. A response in resonance unit was recorded as a function of a time.
(§5) A sensor tip surface was regenerated with 300 μl of 1 M NaCl when chemokine or CD44 was used, or regenerated with 300 μl of 1 M NaCl, and additional 100 μl of 50 mM EDTA (pH8.0), when selectin was used. As a result of regeneration of a sensor tip surface, a remarkable change in a baseline was not observed.
(§6) An affinity kinetic parameter was determined by BIAevaluation 3.0 software [manufactured by Pharmacia Biosensor] using a single site binding model. […] In FIG. 6 and Table 3, SLC denotes secondary lymphoid tissue chemokin, IP-10 denotes γ-interferon inducible protein-10, SDF-1β denotes stromal cell-derived factor-1β, CS E denotes chondroitin sulfate E, and CS A denotes chondroitin sulfate A. In addition, in Table 3, Kd value for the interaction between monomeric CD44 and chondroitin sulfate E is a value calculated from a binding amount at equilibrium, and Kd value of the interaction between CD44 and hyaluronic acid is a value calculated using CD44-Ig.

[2] = molecular target: γ-interferon inducible protein-10 (Homo sapiens, UniProt P02778); test: BIAcore surface plasmon resonance, immobilized glycosaminoglycan vs IP-10; type: binding; details: for Kd / koff / kon: GAG immobilized, 25° C.
Sequence of γ-interferon inducible protein-10 (P02778 22-98): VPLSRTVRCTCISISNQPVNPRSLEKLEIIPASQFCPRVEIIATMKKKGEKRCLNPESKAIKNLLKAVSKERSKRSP
Procedure: as §1, §2, §3, §4, §5, §6

[3] = system: P-selectin-Ig; test: ELISA, biotinylated versican binding to P-selectin-Ig in presence of glycosaminoglycan; details: 100 μg/ml glycosaminoglycan; FIG. 5
Procedure: (§7) A well of a 96 well flat bottom microtiter plate was coated with BSA (5 μg/ml), anti-versican monoclonal antibody 2B1 (5 μg/ml), CD44-Ig (7 μg/ml), L-selectin-Ig (3 μg/ml), P-selectin-Ig (3 μg/ml) or chemokine (1 μg/ml), and then blocked with a phosphate buffered physiological saline containing 3% by weight of BSA. As the above chemokine, secondary lymphoid tissue chemokine, γ-interferon inducible protein-10, platelet factor 4, stromal cell-derived factor-1β [manufactured by Pepro Tech] and stromal cell-derived factor-1α [manufactured by Pepro Tech] were used.
(§8) Thereafter, the plate was washed with the buffer A, and enzyme-linked immunosorbent assay was performed in the same manner as that of the previous report [Kawashima, H. et al., J. Biol. Chem., 275, 35448-35456 (2000)]. Binding was determined by measuring absorbance at 620 nm using alkaline phosphatase-conjugated streptavidin and Blue Phos™ substrate. In FIG. 5, expression of an abscissa axis is the same as that of FIG. 4.

[4] = system: CD44-Ig; test: ELISA, biotinylated versican binding to CD44-Ig in presence of glycosaminoglycan; parameters: species or system human; details: 100 μg/ml glycosaminoglycan; FIG. 5
Sequence of CD44-Ig (P16070 21-178 limits assumed): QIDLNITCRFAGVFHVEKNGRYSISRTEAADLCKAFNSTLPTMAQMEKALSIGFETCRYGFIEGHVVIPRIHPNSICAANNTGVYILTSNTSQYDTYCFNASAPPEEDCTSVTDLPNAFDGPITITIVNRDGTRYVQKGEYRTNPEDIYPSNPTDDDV
Procedure: as §7, §8

| Kd [1] | koff [1] | kon [1] | Kd [2] | koff [2] | kon [2] | inhibition of binding between biotinylated versican and P-selectin [3] | inhibition of binding between biotinylated versican and CD44-Ig [4] | interaction with immobilized glycosaminoglycan (sensorgram) [1] | interaction with immobilized glycosaminoglycan (sensorgram) [2] | Substance |
| --- | --- | --- | --- | --- | --- | --- | --- | --- | --- | --- |
| 56.8 nM | 0.000759 s⁻¹ | 13400 M⁻¹ s⁻¹ | 73.2 nM | 0.0023 s⁻¹ | 31500 M⁻¹ s⁻¹ | inhibited | not remarkable |  |  | chondroitin polysulfate [CPS] |
|  |  |  |  |  |  |  | inhibited | did not interact | did not interact | chondroitin sulfate A [CS A] |
| 29.7 nM | 0.00125 s⁻¹ | 42100 M⁻¹ s⁻¹ | 130 nM | 0.00211 s⁻¹ | 16200 M⁻¹ s⁻¹ | inhibited | inhibited | bound | bound | chondroitin sulfate E [CS E] |
|  | 0.000664 s⁻¹ | 24000 M⁻¹ s⁻¹ | 34.9 nM | 0.000923 s⁻¹ | 26400 M⁻¹ s⁻¹ | inhibited | inhibited |  |  | dermatan polysulfate [DPS] |
